In one series the target is T1, human cathepsin K (Homo sapiens, UniProt P43235).
T1 construct: The proform of cathepsin K was converted to mature cathepsin K by brief exposure to pH 4; made in house; host or cells: baculovirus; Trichoplusia ni High Five cells (virus raised in Sf-9)
T1 sequence (P43235 115-329): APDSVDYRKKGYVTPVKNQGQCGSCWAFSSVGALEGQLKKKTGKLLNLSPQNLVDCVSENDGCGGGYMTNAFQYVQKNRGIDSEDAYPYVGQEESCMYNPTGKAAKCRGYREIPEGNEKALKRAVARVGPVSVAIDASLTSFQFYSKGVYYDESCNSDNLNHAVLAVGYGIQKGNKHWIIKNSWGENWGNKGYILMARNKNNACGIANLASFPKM
In words: cathepsin K inhibition assay, fluorogenic substrate Cbz-Phe-Arg-AMC, progress curve method. Type of series: biochemical. The conditions noted are these: Table 1; human recombinant enzyme, pH 5.5, 30° C., 10 μM substrate; read-out: hcatK Ki. The method, then: All assays for cathepsin K were carried out with human and rat recombinant enzyme. Assays for cathepsins S & V were also carried out with human recombinant enzyme. Assays for human cathepsins B, H, and L were carried out with enzyme, purchased from Athens Research and Technology, Inc., prepared from human liver tissue. […] A stock substrate solution of Cbz-Phe-Arg-AMC was prepared at a concentration of 50 mM in dimethyl sulfoxide. This substrate was diluted into the assay for a final substrate concentration of 10 μM in the rat cathepsin K, human cathepsin K, and human cathepsin B assays; a final substrate concentration of 5 μM in the human cathepsin L assay; and a final substrate concentration of 2 μM in the human cathepsin V assay.
All assays contained 10% dimethyl sulfoxide. […] All assays were conducted at 30° C. Product fluorescence (excitation at 360 nm; emission at 440 nm, (except cathepsin H which used excitation at 340 nm; emission at 420 nm)) was monitored with a PerSeptive Biosystems Cytofluor II fluorescence plate reader. Product progress curves were generated over 2.3 h monitoring the formation of 7-amino-4-methylcoumarin product (or β-naphthalamide for cathepsin H).
Two liters of Spodoptera frugiperda (Sf-9) cells (ATCC) were grown in Grace's Supplemented medium (Life Technologies) supplemented with 2 g/L glucose, 10% fetal bovine serum (HyClone) and 0.1% pluronic F-68 (Life Technologies). […] The cells continued to grow for 72 h post-infection, before the virus was harvested by centrifugation at 1400×g for 30 min.
One and one-half liters of Trichoplusia ni (T. ni) High Five (™) cells [JRH Biosciences, Woodland, Calif. […] Media were separated from cells at a rate of 1 L/min using the Centritech 100 (™) continuous-flow centrifuge (DuPont) operating at 200×g.
Protein Purification: Media (human and rat) were filtered through a Whatman 3 filter, and then loaded onto a 25 mL Poros HS II (26 mm×47 mm) cation exchange column equilibrated in 25 mM sodium acetate at pH 5.5 (equilibration buffer). The column was washed until the absorbance reached the baseline value, and then the protein was eluted with a linear gradient from 0-2 M sodium chloride in the equilibration buffer. Column fractions were analyzed by SDS-PAGE, N-terminal sequencing, and mass spectrometry. Fractions containing the proform of cathepsin K were pooled and frozen at −80° C. The proform was concentrated in an Amicon Centriprep 10 and fractionated with a Superdex 75 column (26 mm×600 mm, Pharmacia) equilibrated in 400 mM sodium chloride, 25 mM sodium acetate at pH 5.5.
Cathepsin K Activation: The proform of cathepsin K was converted to mature cathepsin K by brief exposure to pH 4 in the presence of 5 mM L-cysteine. Typically, 5 mM L-cysteine was added to 10 mL of approximately 1 mg/mL procathepsin K. One mL of this solution was diluted ten-fold into 450 mM sodium acetate at pH 4.0 containing 5 mM L-cysteine. This solution was reacted at 23° C. for 2 min before neutralization with 2 mL 1.8 M sodium acetate at pH 6.0. The neutralized sample was added to the remaining 9 mL of procathepsin K. The mixture was incubated at 4° C. for 2-3 days. The activated cathepsin K was chromatographed on a Poros HS II column as described above.
Potential inhibitors were evaluated using the progress curve method. Assays were carried out in the presence of variable concentrations of test compound. Reactions were initiated by addition of buffered solutions of inhibitor and substrate to enzyme. Data analysis was conducted according to one of two procedures depending on the appearance of the progress curves in the presence of inhibitors. […] Ki values were calculated from IC50 values using equation 2 assuming a competitive model.

pKi: −log10 of the molar value.

On to `CCCC[C@H](NC(=O)OCC1(Cc2ccccc2)CCC1)C(=O)C(=O)N[C@H](C)c1ccccc1` [Example 5, (1-Benzylcyclobutyl)methyl(1S)-1-(oxo{[(1R)-1-phenylethyl]amino}acetyl)pentylcarbamate], for which the melting point (commonly the temperature, or range, at which the solid turns liquid) fell in the range of 96 to 98 °C. For the same molecule, on human cathepsin K, the negative logarithm of the Ki (pKi) (as a rule, the Ki on a negative log10 scale, so that one unit is a factor of ten) was 8.00 to 9.00.

Take `CCCC[C@H](NC(=O)OCC1(CCc2ccccc2)CCC1)C(=O)C(=O)N[C@H](C)c1ccccc1` [Example 6, [1-(2-Phenylethyl)cyclobutyl]methyl(1S)-1-(oxo{[(1R)-1-phenylethyl]amino}acetyl)pentylcarbamate]: the melting point was 86 to 88 °C. Further, on human cathepsin K, the negative logarithm of the Ki (pKi) was 7.00 to 8.00.

For the molecule `CCCC[C@H](NC(=O)OCC1(CCCc2ccccc2)CCC1)C(=O)C(=O)N[C@H](C)c1ccccc1` [Example 7, [1-(3-Phenylpropyl)cyclobutyl]methyl(1S)-1-(oxo{[(1R)-1-phenylethyl]amino}acetyl)pentylcarbamate], the melting point is 91 to 93 °C. Also, the pKi at human cathepsin K was 7.00 to 8.00.

In the case of `CCCC[C@H](NC(=O)OCC1(Cc2ccccc2)CCCC1)C(=O)C(=O)N[C@H](C)c1ccccc1` [Example 8, (1-Benzylcyclopentyl)methyl(1S)-1-(oxo{[(1R)-1-phenylethyl]amino}acetyl)pentylcarbamate], the melting point lay within 108 to 110 °C. Further, at human cathepsin K, the pKi is 7.00 to 8.00.

For `CCCC[C@H](NC(=O)OCC1(CSc2nccn2-c2ccccc2)CCC1)C(=O)C(=O)N[C@H](C)c1ccccc1` [Example 28, (1-{[(1-phenyl-1H-imidazol-2-yl)sulfanyl]methyl}cyclobutyl)methyl (1S)-1-(oxo{[(1R)-1-phenylethyl]amino}acetyl)pentylcarbamate], the pKi on human cathepsin K is 7.00 to 8.00.

As for `CCCC[C@H](NC(=O)OCC1(COc2ncnc3ccsc23)CCC1)C(=O)C(=O)N[C@H](C)c1ccccc1` [Example 29, {1-[(thieno[3,2-d]pyrimidin-4-yloxy)methyl]cyclobutyl}methyl (1S)-1-(oxo{[(1R)-1-phenylethyl]amino}acetyl)pentylcarbamate], the negative-log Ki (pKi) on human cathepsin K is 7.00 to 8.00.

For the molecule `CCCC[C@H](NC(=O)OCC1(COc2ncccn2)CCC1)C(=O)C(=O)N[C@H](C)c1ccccc1` [Example 30, {1-[(2-pyrimidinyloxy)methyl]cyclobutyl}methyl (1S)-1-(oxo {[(1R)-1-phenylethyl]amino}acetyl)pentylcarbamate], the pKi on human cathepsin K was 6.00 to 7.00.

As to `CCCC[C@H](NC(=O)OCC1(COc2nc(-c3ccc(C)cc3)cs2)CCC1)C(=O)C(=O)N[C@H](C)c1ccccc1` [Example 31, [1-({[4-(4-methylphenyl)-1,3-thiazol-2-yl]oxy}methyl)cyclobutyl]methyl (1S)-1-(oxo{[(1R)-1-phenylethyl]amino}acetyl)pentylcarbamate], the pKi on human cathepsin K was 6.00 to 7.00.

Consider `CCCC[C@H](NC(=O)OCC1(CSc2nccc(-c3ccc(Cl)cc3)n2)CCC1)C(=O)C(=O)N[C@H](C)c1ccccc1` [Example 33, [1-({[4-(4-chloro phenyl)-2-pyrimidinyl]sulfanyl}methyl)cyclobutyl]methyl (1S)-1-(oxo{[(1R)-1-phenylethyl]amino}acetyl)pentylcarbamate], for which, on human cathepsin K, the negative logarithm of the Ki (pKi) was 8.00 to 9.00.

Consider `CCCC[C@H](NC(=O)OCC1(CSc2ncc(-c3ccc(Cl)cc3)n2C)CCC1)C(=O)C(=O)N[C@H](C)c1ccccc1` [Example 34, [1-({[5-(4-chlorophenyl)-1-methyl-1H-imidazol-2-yl]sulfanyl}methyl)cyclobutyl]methyl (1S)-1-(oxo{[(1R)-1-phenylethyl]amino}acetyl)pentylcarbamate], for which, on human cathepsin K, the negative logarithm of the Ki (pKi) is 6.00 to 7.00.

As to `CCCC[C@H](NC(=O)OCC1(CCSc2nccn2C)CCC1)C(=O)C(=O)N[C@H](C)c1ccccc1` [Example 36, (1-{2-[(1-methyl-1H-imidazol-2-yl)sulfanyl]ethyl}cyclobutyl)methyl (1S)-1-(oxo{[(1R)-1-phenylethyl]amino}acetyl)pentylcarbamate], the pKi on human cathepsin K was below 6.00.

For `CCCC[C@H](NC(=O)OCC1(CCCSc2nccn2C)CCC1)C(=O)C(=O)N[C@H](C)c1ccccc1` [Example 37, (1-{3-[(1-methyl-1H-imidazol-2-yl)sulfanyl]propyl}cyclobutyl)methyl (1S)-1-(oxo{[(1R)-1-phenylethyl]amino}acetyl)pentylcarbamate], at human cathepsin K, the negative logarithm of the Ki (pKi) was below 6.00.

`CCCC[C@H](NC(=O)OCC1(CCCOc2ccnc(Cl)n2)CCC1)C(=O)C(=O)N[C@H](C)c1ccccc1` [Example 38, (1-{3-[(2-chloro-4-pyrimidinyl)oxy]propyl}cyclobutyl)methyl (1S)-1-(oxo{[(1R)-1-phenylethyl]amino}acetyl)pentylcarbamate]: at human cathepsin K, the pKi was below 6.00.
